According to the RepoRT retention time repository:

Assay: RP, Waters ACQUITY UPLC BEH C18, 150 × 2.1 mm, 1.7 µm, 40 °C, 0.4 mL/min, estimated dead time 0.83 min; A: water + 0.1% formic acid, pH 3; B: acetonitrile; gradient (min/%B) 0/2 1.5/8 3.5/14 6/16 8/25 9.2/98 10.5/2 12/2
Conditions: stereoisomer not certain

Structure (SMILES)	LC retention time [min]
O=c1cc(-c2ccc(O)cc2)oc2c(C3OCC(O)C(O)C3O)c(O)c(C3OC(CO)C(O)C(O)C3O)c(O)c12 (stereo not drawn) [apigenin 6-C-glucoside-8-C-arabinoside]	4.93
COc1cc(-c2cc(=O)c3c(O)cc(OC4OC(COC(=O)C=Cc5ccc(O)cc5)C(O)C(O)C4O)cc3o2)ccc1O (stereo not drawn) [chrysoeriol 7-O-[6''-coumaroyl]-glucoside]	10.6
COc1cc(-c2cc(=O)c3c(O)cc(OC4OC(COC5OC(CO)C(O)C(O)C5O)C(O)C(O)C4O)cc3o2)ccc1O (stereo not drawn) [chrysoeriol 7-O-diglucoside]	8.42
COc1cc(C=CC(=O)OCC2OC(OC3C(c4c(O)cc5oc(-c6ccc(O)cc6)cc(=O)c5c4O)OC(CO)C(O)C3O)C(O)C(O)C2O)ccc1O (stereo not drawn) [feruloyl-isovitexin 2''-O-glucoside]	7.88
NC(N)=NCCCCNC(=O)C=Cc1ccc2c(c1)C(C(=O)NCCCCN=C(N)N)C(c1ccc(O)cc1)O2 (stereo not drawn) [hordatine A]	4.52
COc1cc(C=CC(=O)NCCCCN=C(N)N)cc2c1OC(c1ccc(O)cc1)C2C(=O)NCCCCN=C(N)N (stereo not drawn) [hordatine B]	4.42
COc1cc(C=CC(=O)OCC2OC(Oc3cc4oc(-c5ccc(O)c(O)c5)cc(=O)c4c(O)c3C3OC(CO)C(O)C(O)C3O)C(O)C(O)C2O)ccc1O (stereo not drawn) [isoorientin 7-O-[6''-feruloyl]-glucoside]	6.23
CC1OC(OC2C(Oc3cc4oc(-c5ccc(O)c(O)c5)cc(=O)c4c(O)c3C3OC(CO)C(O)C(O)C3O)OC(CO)C(O)C2O)C(O)C(O)C1O (stereo not drawn) [isoorientin 7-O-rhamnosylglucoside]	4.69
COc1cc(-c2cc(=O)c3c(O)c(C4OC(CO)C(O)C(O)C4OC4OCC(O)C(O)C4O)c(O)cc3o2)ccc1O (stereo not drawn) [isoscoparin 2''-O-arabinoside]	6.97
COc1cc(-c2cc(=O)c3c(O)c(C4OC(CO)C(O)C(O)C4O)c(OC4OC(COC(=O)C=Cc5cc(OC)c(O)c(OC)c5)C(O)C(O)C4O)cc3o2)ccc1O (stereo not drawn) [isoscoparin 7-O-[6''-sinapoyl]-glucoside]	7.62
O=c1cc(-c2ccc(O)cc2)oc2cc(O)c(C3OC(CO)C(O)C(O)C3OC3OCC(O)C(O)C3O)c(O)c12 (stereo not drawn) [isovitexin 2''-O-arabinoside]	5.62
O=c1cc(-c2ccc(O)cc2)oc2cc(OC3OC(CO)C(O)C(O)C3O)c(C3OC(CO)C(O)C(O)C3O)c(O)c12 (stereo not drawn) [isovitexin 7-O-glucoside (saponarin)]	4.61
CC1OC(OC2C(Oc3cc4oc(-c5ccc(O)cc5)cc(=O)c4c(O)c3C3OC(CO)C(O)C(O)C3O)OC(CO)C(O)C2O)C(O)C(O)C1O (stereo not drawn) [isovitexin 7-O-rhamnosylglucoside]	4.81
O=c1cc(-c2ccc(O)cc2)oc2c(C3OC(CO)C(O)C(O)C3O)c(O)c(C3OC(CO)C(O)C(O)C3O)c(O)c12 (stereo not drawn) [isovitexin 8-C-glucoside]	5.25
O=c1cc(-c2ccc(O)c(O)c2)oc2c(C3OC(CO)C(O)C(O)C3O)c(O)c(C3OCC(O)C(O)C3O)c(O)c12 (stereo not drawn) [luteolin 6-C-arabinoside 8-C-glucoside]	4.87
COc1cc(-c2cc(=O)c3c(O)c(C4OC(CO)C(O)C(O)C4OC4OCC(OC(=O)C=Cc5cc(OC)c(O)c(OC)c5)C(O)C4O)c(O)cc3o2)ccc1O (stereo not drawn) [sinapoyl-isoscoparin 2''-O-arabinoside]	9.65
COc1cc(C=CC(=O)OC2COC(OC3C(c4c(O)cc5oc(-c6ccc(O)cc6)cc(=O)c5c4O)OC(CO)C(O)C3O)C(O)C2O)cc(OC)c1O (stereo not drawn) [sinapoyl-isovitexin 2''-O-arabinoside]	9.32
COc1cc(C=CC(=O)OCC2OC(Oc3cc(O)c4c(=O)cc(-c5cc(OC)c(O)c(OC)c5)oc4c3)C(O)C(O)C2O)cc(OC)c1O (stereo not drawn) [sinapoyl-tricin 7-O-glucoside]	4.56
